Experimental data published in PubChem BioAssay (NCI).
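Compound exposure: 48 hours, 5 concentrations, 96-well plates. TGI: concentration producing complete growth inhibition.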

Assays:
Test in all cases: NCI anticancer screen, dose series, 48 h
SW-620 colon = system: SW-620 colon
A498 renal = system: A498 renal
NCI-H522 lung = system: NCI-H522 lung
MOLT-4 leukemia = system: MOLT-4 leukemia
HOP-62 NSCLC = system: HOP-62 NSCLC
IGROV1 ovarian = system: IGROV1 ovarian
UACC-62 melanoma = system: UACC-62 melanoma
MDA-MB-231 breast = system: MDA-MB-231 breast
OVCAR-3 ovarian = system: OVCAR-3 ovarian
M14 melanoma = system: M14 melanoma
CCRF-CEM leukemia = system: CCRF-CEM leukemia
SK-OV-3 ovarian = system: SK-OV-3 ovarian
EKVX NSCLC = system: EKVX NSCLC
ACHN renal = system: ACHN renal
NCI/ADR-RES ovarian = system: NCI/ADR-RES ovarian
HS 578T breast = system: HS 578T breast
786-0 renal = system: 786-0 renal
NCI-H460 lung = system: NCI-H460 lung
OVCAR-5 ovarian = system: OVCAR-5 ovarian
MCF7 breast = system: MCF7 breast

Measured: TGI

CN1CCC/C1=C1\C(=O)c2cccn2C1=O
> 100 µM: all assays above

COc1cc(/C=N/NC2=NCCCN2)ccc1O
> 100 µM: all assays above
